Results reported in paper PMC9182012, “Aza-Oxa-Triazole Based Macrocycles with Tunable Properties: Design, Synthesis, and Bioactivity” (Molecules, 2022).

Legend:
[1] = RP-HPLC retention time as measure of hydrophilicity/hydrophobicity; format: physicochemical; details: chromatographic, C18; acetonitrile and water with 0.1% formic acid, 5–95 % acetonitrile over 15 min; higher retention time = more hydrophobic
Excerpt: The bulk properties of the macrocycles depend on the functional groups on the side chain and backbone and the ring size. The platform for the tunability in the macrocyclic scaffold aided in the synthesis of molecules with a wide range of properties. The hydrophilicity/hydrophobicity of the macrocycles is an important property, primarily for biological applications. The tunable property of the synthesized macrocycles is attributed to the different retention times in the reverse-phase high-performance liquid chromatogram (RP-HPLC). Hydrophilic compounds elute first through the column, thus lowering the retention time, whereas a higher retention time corresponds to the comparatively hydrophobic compounds. From Figure 3a, it could be inferred that the macrocycles MC1–5 and MC7 are hydrophilic, whereas MC8 and MC6 are hydrophobic, as depicted by the higher retention times. The higher hydrophobicity is due to the aromatic rings, two benzyl groups in MC6 and a naphthyl group in MC8. Another property achieved by one of the macrocycles is the addition of fluorophoric group as the side chain. The resultant fluorescence could be exploited for various photophysical applications, including the development of fluorimetric sensors (Figure 3b).
A Shimadzu (Kyoto, Japan) LC-MS-8045 with a Sprite TARGA C18 column (40 × 2.1 mm, 5 µm) was used for the LC-MS analysis. The spectra were monitored at 254 nm and 210 nm with a positive mode for mass detection. Water and acetonitrile with 0.1% formic acid were used as eluting solvents A and B. […] HRMS was carried out in a Bruker, Maxis Impact and Waters (Billerica, MA, USA) ACQUITY H-CLASS + UPLC/XevoG2 XS QTOF instrument. A 500 MHz Bruker AV III was used to record the ^1H NMR spectrum. The data were analyzed by MestReNova (version 8.1.1). ^1H NMR shifts are reported in units of ppm relative to tetramethyl silane. […]
Figure 3 Properties of the macrocycles. […] Fluorescence spectrum of 10 μM MC8 in methanol upon excitation with a wavelength of 278 nm.

[2] = biological target: bovine serum albumin (BSA) (Bos taurus, UniProt P02769); assay: Protein interaction by fluorescence quenching, Stern–Volmer binding constant; details: for Extent of binding with BSA, in words: fluorescence quenching, 10 µM BSA, pH 7.4, 25 °C; for Binding Constant, BSA: slope of Stern–Volmer plot (Io/I vs macrocycle concentration), 10 µM BSA in phosphate buffer pH 7.4, 2–100 µM macrocycle from 2 mM DMSO stock, 25 °C, excitation 280 nm, 3 min equilibration
Method: (§1) All the fluorescence spectra were recorded on a Perkin Elmer (Waltham, MA, USA) FL 6500 at 25 °C. The excitation wavelength of 280 nm and a slit width of 5 nm were used for excitation and emission. Next, 6.6 mg of BSA/HSA was dissolved in 10 mL of pH 7.4 phosphate buffer to make 10 μM BSA/HSA. The stock solutions of macrocycles were of 2 mM concentration dissolved in DMSO. The titrations were carried out in varied concentrations of macrocycles from 2 μM to 100 μM. Three minutes were given as the equilibration time after the addition of the solution. The Stern–Volmer plot was used to calculate the binding constant (slope) by plotting Io/I vs. the macrocycle concentration.
(§2) Figure 4 Fluorescence quenching of protein by MC7 at excitation wavelength 280 nm, (a) BSA and (b) HSA. To 10 µM protein solution in phosphate buffer (pH 7.4), 2–100 µM macrocycle solution was added at 25 °C. Inset: Stern–Volmer Plot; Io and I are the fluorescence intensity at 0 µM and the given concentration of the macrocycle, and the slope is considered as the binding constant. […]
(§3) 8.2 Fluorescence spectroscopy for protein interaction studies
(§4) 8.2.1 Experimental Procedure
(§5) 10 μM BSA was prepared by dissolving 6.6 mg of BSA in 10 mL of phosphate buffer of pH
(§6) 7.4. The macrocycles were dissolved in DMSO to make the stock solution of 2 mM concentration. 2 mL of the BSA control solution was taken in the fluorescence cuvette to take the emission at zero concentration of the compound. The titration was carried out by varying the concentration of macrocycle from 2 μM to 100 μM. An equilibration time of 3 minutes is given for each measurement after the addition of the solution. Binding constant were estimated from the Stern-Volmer plot by plotting I o/I vs concentration of the macrocycle. The slope of the graph was attributed as the binding constant.

[3] = biological target: human serum albumin (HSA) (Homo sapiens, UniProt P02768); assay: as above; details: for Extent of interaction with HSA, in words: fluorescence quenching, 10 µM HSA, pH 7.4, 25 °C; for Binding Constant, HSA: slope of Stern–Volmer plot (Io/I vs macrocycle concentration), 10 µM HSA in phosphate buffer pH 7.4, 2–100 µM macrocycle from 2 mM DMSO stock, 25 °C, excitation 280 nm, 3 min equilibration
Method: as §1, §2, §3, §4, §5, §6

Sequence of bovine serum albumin (BSA) (P02769 25-607): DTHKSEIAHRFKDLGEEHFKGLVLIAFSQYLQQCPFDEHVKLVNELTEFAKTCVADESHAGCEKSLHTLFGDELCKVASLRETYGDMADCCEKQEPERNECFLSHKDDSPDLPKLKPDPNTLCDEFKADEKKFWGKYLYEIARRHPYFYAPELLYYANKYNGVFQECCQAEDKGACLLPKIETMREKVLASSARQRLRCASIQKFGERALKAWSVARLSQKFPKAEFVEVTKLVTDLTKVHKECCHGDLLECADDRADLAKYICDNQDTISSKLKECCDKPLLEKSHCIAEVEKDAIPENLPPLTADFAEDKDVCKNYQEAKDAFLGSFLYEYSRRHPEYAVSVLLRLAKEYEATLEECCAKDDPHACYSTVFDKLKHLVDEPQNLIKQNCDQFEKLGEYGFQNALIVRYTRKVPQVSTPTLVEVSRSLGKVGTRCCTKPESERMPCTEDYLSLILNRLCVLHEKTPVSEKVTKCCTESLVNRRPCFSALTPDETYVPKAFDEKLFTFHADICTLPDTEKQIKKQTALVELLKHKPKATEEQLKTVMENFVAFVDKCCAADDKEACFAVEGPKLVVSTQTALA
Sequence of human serum albumin (HSA) (P02768 25-609): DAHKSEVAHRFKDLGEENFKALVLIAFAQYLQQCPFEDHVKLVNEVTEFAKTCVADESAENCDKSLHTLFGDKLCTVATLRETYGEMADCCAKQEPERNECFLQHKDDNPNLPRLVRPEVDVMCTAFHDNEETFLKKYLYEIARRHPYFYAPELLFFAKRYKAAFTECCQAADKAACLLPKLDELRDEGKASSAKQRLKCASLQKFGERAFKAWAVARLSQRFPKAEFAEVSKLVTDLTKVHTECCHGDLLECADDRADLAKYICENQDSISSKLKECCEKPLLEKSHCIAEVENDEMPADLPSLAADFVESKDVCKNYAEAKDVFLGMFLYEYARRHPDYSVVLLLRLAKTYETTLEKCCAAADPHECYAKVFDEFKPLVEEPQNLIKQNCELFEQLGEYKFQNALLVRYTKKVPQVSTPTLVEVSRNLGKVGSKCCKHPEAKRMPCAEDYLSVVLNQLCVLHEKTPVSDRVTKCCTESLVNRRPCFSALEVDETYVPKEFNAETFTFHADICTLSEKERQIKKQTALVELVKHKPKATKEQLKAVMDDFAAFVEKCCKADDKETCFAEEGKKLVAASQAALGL

Row | Structure (SMILES) | Hydrophilicity/hydrophobicity inferred from RP-HPLC retention time [1] | Extent of binding with BSA, in words [2] | Binding Constant, BSA [2] | Extent of interaction with HSA, in words [3] | Binding Constant, HSA [3]
1 | c1c2nnn1CCNCCn1cc(nn1)COCCCCCCCCCCCCOC2 [MC7] | hydrophilic | highest binding | 27100 M⁻¹ | highest interaction and quenching | 15800 M⁻¹
2 | CN1CCN(C)Cc2cn(nn2)CCNCCn2cc(nn2)C1 [MC5] | – | negligible binding | 1400 M⁻¹ | – | 3200 M⁻¹
3 | CC(C)N1CCOCc2cn(nn2)CCNCCn2cc(nn2)C1 [MC2] | – | moderate binding | 4000 M⁻¹ | – | 4400 M⁻¹
4 | c1ccc(CN2CCN(Cc3ccccc3)Cc3cn(nn3)CCNCCn3cc(nn3)C2)cc1 [MC6] | hydrophobic | negligible binding | 800 M⁻¹ | lowest | 930 M⁻¹
5 | c1ccc2cc(CN3CCOCc4cn(nn4)CCNCCn4cc(nn4)COCC3)ccc2c1 [MC8] | hydrophobic | – | – | – | –
6 | CCCN1CCOCc2cn(nn2)CCNCCn2cc(nn2)C1 [MC1] | – | moderate binding | 4600 M⁻¹ | – | 4200 M⁻¹
7 | CCN(CC)C(=O)CN1CCOCc2cn(nn2)CCNCCn2cc(nn2)C1 [MC4] | – | moderate binding | 9100 M⁻¹ | greater extent of interaction | 8400 M⁻¹
8 | c1c2nnn1CCNCCn1cc(nn1)CN(C1CCCCC1)CCOC2 [MC3] | – | moderate binding | 4200 M⁻¹ | – | 3500 M⁻¹
